The experiment concerns the target T1, human liver recombinant fructose-1,6-bisphosphatase (hFBPase) (Homo sapiens, UniProt P09467).
T1 sequence (P09467 1-338): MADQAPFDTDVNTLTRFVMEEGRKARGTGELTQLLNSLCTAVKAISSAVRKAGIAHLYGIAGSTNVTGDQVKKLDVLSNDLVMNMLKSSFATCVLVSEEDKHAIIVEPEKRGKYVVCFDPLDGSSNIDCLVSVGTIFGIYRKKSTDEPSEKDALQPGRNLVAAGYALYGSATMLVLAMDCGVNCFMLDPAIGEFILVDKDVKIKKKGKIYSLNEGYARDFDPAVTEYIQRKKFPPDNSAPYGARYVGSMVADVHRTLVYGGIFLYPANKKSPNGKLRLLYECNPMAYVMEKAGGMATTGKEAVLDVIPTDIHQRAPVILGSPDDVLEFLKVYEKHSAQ
Nature of the experiment: Inhibition of human liver recombinant fructose-1,6-bisphosphatase (spectrophotometric coupled PGI/G6PDH assay). It counts as biochemical. The settings on record: human liver recombinant enzyme; 0.167 mM fructose-1,6-bisphosphate, pH 7.5, room temperature, 340 nm. As for the experimental part:
Method for Measuring the Inhibition of Human Liver Recombinant Fructose-1,6-bisphosphatase
The enzymatic activity is measured by using a spectrophotometric method by means of reactions coupling the formation of the product (fructose-6-phosphate) to the reduction of NADP+ via phosphoglucoisomerase (PGI) and glucose-6-phosphate dehydrogenase (G6PDH).
The reaction mixtures (250 μl) are prepared in 96-well plates and are composed of 20 mM triethanolamine, pH 7.5, 2 mM MgCl2, 0.1 mM EDTA, 40 mM ammonium sulfate, 0.5 mM NADP, 1 U/ml G6PDH, 1 U/ml PGI and 0.167 mM of substrate (fructose-1,6-bisphosphate).
The inhibitors are prepared at 10^−2 M in 100% DMSO and tested at 10^−5 M (DMSO 0.1% final).
The reactions are initiated by addition of human liver recombinant enzyme fructose-1,6-bisphosphatase (hFBPase) and monitored for 30 minutes at 340 nm, at room temperature, in a Tecan plate reader.
Usually IC50 stands for the concentration needed to halve the response being measured. Turning to `CC(C)c1cccc(C(C)C)c1NC(=O)Nc1[nH]c(Cc2ccc(C(=O)O)o2)nc1C(N)=O` [Example 7.9, 5-{4-Carbamoyl-5-[3-(2,6-diisopropylphenyl)ureido]-1H-imidazol-2-yl-methyl}furan-2-carboxylic acid], the IC50 was found to be 42 µM.
With `CCCc1ccc(C(=O)Nc2[nH]c(Cc3ccc(C(=O)O)o3)nc2C(N)=O)cc1` [Example 6, 5-[4-Carbamoyl-5-(4-propylbenzoylamino)-1H-imidazol-2-ylmethyl]furan-2-carboxylic acid] the figure was 28 µM.
For the compound `CC(C)(C)c1ccc(C(=O)Nc2[nH]c(Cc3ccc(C(=O)O)o3)nc2C(N)=O)cc1` [Example 6.8, 5-[5-(4-tert-Butylbenzoylamino)-4-carbamoyl-1H-imidazol-2-ylmethyl]furan-2-carboxylic acid], the IC50 is 23 µM.
With `CC(C)(C)c1ccc(C(=O)Nc2[nH]c(Cc3ccc(C(=O)N4CCCC4)o3)nc2C(N)=O)cc1` [Example 8.5, 5-(4-tert-Butylbenzoylamino)-2-[5-(pyrrolidine-1-carbonyl)furan-2-yl-methyl]-1H-imidazole-4-carboxamide], the IC50 was 36 µM.
The result for `CCCCCc1ccc(NC(=O)Nc2[nH]c(Cc3ccc(C(=O)O)o3)nc2C(N)=O)cc1` [Example 7.8, 5-{4-Carbamoyl-5-[3-(4-pentylphenyl)ureido]-1H-imidazol-2-ylmethyl}furan-2-carboxylic acid] reads 24 µM.

These data come from patent US8362057B2, “Imidazolecarboxamide derivatives as fructose-1,6-bisphosphatase inhibitors, and pharmaceutical compositions comprising same” (Merck Patent Gesellschaft mit beschränkter Haftung, priority 2005, dated 2013).
